Experimental data reported in patent publication US10227373B2 (priority 2014, dated 2019).
pEC50, pIC50: −log10 of the molar value. “And” between values parts separate entries of the source, which are not always exact repeats. Equal values may be shown once. Read-outs that look alike come from different tables or passages of the source. Marks after values point to notes of the source that are not given here.

Assays:
Dengue [1] = test system: Dengue
Vaccinia [2] = test system: Vaccinia
[3] = biological target: S-adenosylhomocysteine hydrolase (SAHase) (Oryctolagus cuniculus, UniProt A0A5F9DS62); test: SAHase inhibition (release of free homocysteine); type: biochemical; settings: SAHase from rabbit erythrocytes; read-out: IC50 versus SAHase
Ebola virus [4] = test system: Ebola virus
in vitro [5] = settings: human
Ebola virus [6] = test: microbe, parasite or virus in culture; settings: Zaire ebolavirus, read-out: EC50 (IC50)
measles virus = test: microbe, parasite or virus in culture; type: cell-based; settings: Measles morbillivirus, Vero 76, read-out: drug concentration to reduce viral replication (EC50)
HCMV = test: microbe, parasite or virus in culture; type: cell-based, human cytomegalovirus; settings: Human betaherpesvirus 5, HFF
in vitro [7] = settings: human; remark: listed apart in the source
Vaccinia [8] = test: microbe, parasite or virus in culture; type: cell-based, vaccinia virus
Measles = test: microbe, parasite or virus in culture; type: cell-based; settings: Measles morbillivirus, Vero 76
in vitro [9] = settings: African green monkey
Dengue [10] = test: microbe, parasite or virus in culture; type: cell-based
HBV = test: microbe, parasite or virus in culture; type: cell-based, hepatitis B virus
in vitro [11] = settings: human; remark: listed apart in the source
NOV = test: microbe, parasite or virus in culture; type: cell-based; settings: Norovirus, HG23
Ebola (Zaire) = test: microbe, parasite or virus in culture; type: cell-based; settings: Zaire ebolavirus, Vero
in vitro [12] = settings: human; remark: listed apart in the source

Sequence of S-adenosylhomocysteine hydrolase (SAHase) (A0A5F9DS62 1-428): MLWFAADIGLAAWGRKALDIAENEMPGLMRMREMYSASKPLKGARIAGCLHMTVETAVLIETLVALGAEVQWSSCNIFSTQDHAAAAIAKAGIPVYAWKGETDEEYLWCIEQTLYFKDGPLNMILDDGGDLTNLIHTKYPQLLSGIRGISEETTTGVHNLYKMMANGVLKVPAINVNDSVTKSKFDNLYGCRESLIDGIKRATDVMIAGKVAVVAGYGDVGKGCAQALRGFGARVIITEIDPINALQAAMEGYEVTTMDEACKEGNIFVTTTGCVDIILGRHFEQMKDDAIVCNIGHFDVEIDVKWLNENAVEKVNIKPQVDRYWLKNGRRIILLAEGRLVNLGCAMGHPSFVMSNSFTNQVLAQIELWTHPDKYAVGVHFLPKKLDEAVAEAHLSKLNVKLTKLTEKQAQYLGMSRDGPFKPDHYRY

Nc1ncc(Br)c2c1ncn2[C@@H]1C[C@H](CO)[C@@H](O)[C@H]1O [3-Bromo-3-deazaaristeromycin]
SI (CC50/EC50) (Dengue [1]): 2 | SI (CC50/EC50) (Tacaribe): 7.9 | pEC50 (Influenza B): 6.08 | SI (CC50/EC50) (Influenza B): >340 | pEC50 (Flu A (H3N2)): < 3.54 | SI (CC50/EC50) (Flu A (H3N2)): 0 | pEC50 (Flu A (H1N1)): < 3.54 | SI (CC50/EC50) (Flu A (H1N1)): 0 | SI (CC50/EC50) (Rift Valley Fever): 5 | pEC50 (Flu A (H5N1)): 5.94 | SI (CC50/EC50) (Flu A (H5N1)): >260 | SI (CC50/EC50) (Vaccinia [2]): >1.3 | CC50 (MDCK cells): > 290 µM

Nc1ncc(Br)c2c1ncn2[C@@H]1C=C(CO)[C@@H](O)[C@H]1O [3-Bromo-3-deazaneplanocin]
SI (CC50/EC50) (Dengue [1]): 57 | SI (CC50/EC50) (Tacaribe): >2000 | SI (CC50/EC50) (Epstein Barr): <4.3 | CC50 (CRFK cells): 94^b | CC50/EC50 (Marburg): 1100 | pEC50 (Marburg): 8.05 | pIC50 [3]: 8.57 | pEC50 (Influenza B): < 6.80 | SI (CC50/EC50) (Influenza B): <7 | MCC (minimum concentration causing microscopically detectable alteration of normal cell morphology) (Vero cells): >100^d | SI (CC50/EC50) (Junin): 160 | pEC50 (Flu A (H3N2)): 5.81 | SI (CC50/EC50) (Flu A (H3N2)): >190 | SI (CC50/EC50) (Feline herpes): 470 | pEC50 (Flu A (H1N1)): > 7.03 | SI (CC50/EC50) (Flu A (H1N1)): >2345 | SI (CC50/EC50) (Rift Valley Fever): 250 | pEC50 (Flu A (H5N1)): 6.03 | SI (CC50/EC50) (Flu A (H5N1)): >310 | CC50 (Akata cells): 0.13^b | SI (CC50/EC50) (Punta Toro): 140 | SI (CC50/EC50) (Pichinde): 24 | CC50/EC50 (Ebola): 3 | pEC50 (Ebola): 5.48

Nc1nccc2c1ncn2[C@@H]1C[C@@H](CO)[C@H](O)[C@@H]1O [carbocyclic 3-deazaadenosine, reference compound]
EC90 (IC90; concentration inhibiting viral replication by 90%) (Ebola virus [4]): > 126.5 µM and 240.3 µM

Nc1nccc2c1ncn2C1=C[C@H](CO)[C@@H](O)[C@H]1O [“D”-3-Deazaisoneplanocin, D-1′,6′-iso-3-deazaneplanocin]
CC50 (in vitro [5]): > 100 µM | pEC50 (Ebola virus [6]): > 6.49 | CC50/EC50 (Ebola virus [4]): >313 µM | EC90 (IC90; concentration inhibiting viral replication by 90%) (Ebola virus [4]): 74.1 µM | EC50 (measles virus): < 0.1 µg/mL

Nc1ncnc2c1ncn2C1=C[C@H](CO)[C@@H](O)[C@H]1O [“D”-Isoneplanocin, (1R,2S,5R)-3-(6-Amino-9H-purin-9-yl)-5-(hydroxymethyl)cyclopent-3-ene-1,2-diol]
pEC50 (HCMV): 6.96 | EC90 (HCMV): > 12 µM | CC50 (in vitro [7]): > 100 µM | pEC50 (Vaccinia [8]; Orthopoxvirus vaccinia, HFF): 5.00 | EC90 (Vaccinia [8]; Orthopoxvirus vaccinia, HFF): > 300 µM | pEC50 (Measles): > 6.42 | CC50 (in vitro [9]): 1.3 µM | pEC50 (Dengue [10]): 5.82 | pEC50 (Dengue [10]; Dengue virus, Vero 76): 5.96 | pEC50 (HBV; Hepatitis B virus): 5.14 | EC90 (HBV; Hepatitis B virus): 35 µM | CC50 (in vitro [11]): > 100 µM | pEC50 (NOV): 6.11 | EC90 (NOV): 8.88 µM | pEC50 (Ebola (Zaire)): 6.42

Nc1nccc2c1ncn2C1=C[C@@H](CO)[C@H](O)[C@@H]1O [“L”-3-Deazaisoneplanocin, L-1′,6′-iso-3-deazaneplanocin]
CC50 (in vitro [5]): > 100 µM | pEC50 (Ebola virus [6]): > 6.49 | CC50/EC50 (Ebola virus [4]): >313 µM | EC90 (IC90; concentration inhibiting viral replication by 90%) (Ebola virus [4]): < 0.32 µM

Nc1ncnc2c1ncn2C1=C[C@@H](CO)[C@H](O)[C@@H]1O [“L”-Isoneplanocin, (1S,2R,5S)-3-(6-Amino-9H-purin-9-yl)-5-(hydroxymethyl)cyclopent-3-ene-1,2-diol]
pEC50 (HCMV): 5.43 | EC90 (HCMV): 6.86 µM | CC50 (in vitro [7]): > 300 µM | Antiviral activity (Vaccinia [8]): inactive | pEC50 (Measles): 6.14 | CC50 (in vitro [9]): 11.4 µM | pEC50 (Dengue [10]): 5.24 | pEC50 (Dengue [10]; Dengue virus, Vero 76): 5.21 | Antiviral activity (HBV): inactive | pEC50 (NOV): 4.96 | EC90 (NOV): 89 µM | CC50 (in vitro [12]): > 300 µM | pEC50 (Ebola (Zaire)): 6.12
